Results on 25 compounds are retold here after patent publication US5436369A, “Alicyclic phospholipase A2 inhibitors” (Bristol-Myers Squibb Company, priority 1994, dated 1995).

Structures are written as SMILES.

One test concerns the target T1, PLA2 (Homo sapiens, UniProt P14555).
T1 construct: The enzyme is isolated from human platelets; from tissue; host or cells: human platelets
T1 sequence (P14555 21-144): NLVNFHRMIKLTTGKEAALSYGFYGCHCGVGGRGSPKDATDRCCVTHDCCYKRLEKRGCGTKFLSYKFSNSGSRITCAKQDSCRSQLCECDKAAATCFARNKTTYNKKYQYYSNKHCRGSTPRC
Description: PLA2 Inhibition Assay (14C-oleate labeled E. coli membrane substrate). To be noted: Table 1, Structure 11 (Type IA); 100 μM; enzyme isolated from human platelets. The test is classed as biochemical. The procedure: The method used is similar to that reported by Franson, et al. [Jesse, R. L. and Franson R. C., Biochim. Biophys. Acta 575:467-470 (1979); Franson, R. C., Patriarca, P., and Elsback, P., J. Lipid Res. 15: 380-388 (1974)]. The enzyme is isolated from human platelets. The substrate used consists of ^14 C-oleate labeled Escherichia coli membranes. E. coli cells are grown in the presence of ^14 C-oleic acid and then autoclaved to prepare the membranes.
Various concentrations of test compounds are pre-incubated with PLA2 (3.6 μg/mL in a buffer consisting of 25 mM HEPES (pH 7)), 150 mM NaCl, 5.0 mM CaCl2, and 10% DMSO (v/v, test compound solvent) at 37° C. for 7 minutes. The E. coli membrane substrate is then added (0.1 mM phospholipid, 0.005 μCi ^14 C) and the reaction is then incubated at 37° C. for 30 minutes. The reaction is then terminated by the addition of 1.9 mL tetrahydrofuran (THF), and the entire solution is applied to a solid-phase extraction column (aminopropyl resin, Analytichem). The column is rinsed with an additional 1 mL of THF. The free fatty acid product of the reaction is then eluted from the column with 1 mL of 2% acetic acid in THF and collected in a scintillation vial. The amount of free fatty acid product is determined by liquid scintillation counting. The amount of inhibition produced by the test compound is calculated by comparing the counts obtained in the presence of the compound to those obtained in its absence (solvent only). Background counts were determined by performing incubations in the absence of enzyme.
Percent inhibition is determined by the equation: [formula]
As to `O=C(O)/C=C\C(=C\c1ccccc1)c1cccc(C(=O)O)c1` [Structure 11a, (2Z),(4Z)-4-(3-Carboxyphenyl)-5-phenyl-2,4-pentadienoic acid], testing at 100 µM gave an inhibition of 6%.
The same measure, in the same setting: for `CC1(C)CCC(C)(C)c2cc(/C=C(/C=C\C(=O)O)c3cccc(C(=O)O)c3)ccc21` [Structure 11b, (2Z),(4Z)-4-(3-Carboxyphenyl)-5-(5,6,7,8-tetrahydro-5,5,8,8-tetramethyl-2-naphthalenyl)-2,4-pentadienoic acid] the value was 44%.
Consider `CC1(C)CCC(C)(C)c2cc3cc(/C=C(/C=C\C(=O)O)c4cccc(C(=O)O)c4)ccc3cc21` [Structure 11c, (2Z),(4Z)-4-(3-Carboxyphenyl)-5-(5,6,7,8-tetrahydro-5,5,8,8-tetramethyl-2-anthracenyl)-2,4-pentadienoic acid], for which the inhibition at 100 µM was determined as 97%.
Still for that read-out and setting: for `CCCCCCCCCCOc1ccc(/C=C(/C=C\C(=O)O)c2cccc(C(=O)O)c2)cc1` [Structure 11d, (2Z),(4Z)-4-(3-Carboxyphenyl)-5-(4-decyloxyphenyl)-2,4-pentadienoic acid] the value was 100%; for `CCCCCCCCCCOc1ccc(/C=C(/C=C\C(=O)O)c2cccc(C(=O)O)c2)cc1OCCCCCCCCCC` [Structure 11e, (2Z),(4Z)-4-(3-Carboxyphenyl)-5-(3,4-bisdecyloxyphenyl)-2,4-pentadienoic a cid], 100%; for `O=C(O)/C=C\C(=C\CCc1ccccc1)c1cccc(C(=O)O)c1` [Structure 11f, (2Z),(4Z)-4-(3-Carboxyphenyl)-7-phenyl-2,4-heptadienoic acid], 15%.
Turning to `CC1(C)CCC(C)(C)c2cc(CC/C=C(/C=C\C(=O)O)c3cccc(C(=O)O)c3)ccc21` [Structure 11g, (2Z),(4Z)-4-(3-Carboxyphenyl)-7-(5,6,7,8-tetrahydro-5,5,8,8-tetramethyl-2-naphthalenyl)-2,4-heptadienoic acid], 100 µM produced 58% inhibition.
The same measure, in the same setting: to `C\C(=C/C=C(/C=C\C(=O)O)c1cccc(C(=O)O)c1)c1ccc2c(c1)C(C)(C)CCC2(C)C` [Structure 11h, (2Z),(4Z),(6E)-4-(3-Carboxyphenyl)-7-(5,6,7,8-tetrahydro-5,5,8,8-tetramethyl-2-naphthalenyl)-2,4,6-octatrienoic acid] belongs 97%.
Still for that read-out and setting: for `COc1cc(CC/C=C(/C=C\C(=O)O)c2cccc(C(=O)O)c2)ccc1C12CC3CC(CC(C3)C1)C2` [Structure 11i, (2Z),(4Z)-4-(3-Carboxyphenyl)-7-[4-(1-adamantyl)-3-methoxyphenyl]-2,4-heptadienoic acid] the value was 100%.
Same read-out and setting: to `COc1ccc(CC/C=C(/C=C\C(=O)O)c2cccc(C(=O)O)c2)cc1C12CC3CC(CC(C3)C1)C2` [Structure 11j, (2Z),(4Z)-4-(3-Carboxyphenyl)-7-[3-(1-adamantyl)-4-methoxyphenyl]-2,4-heptadienoic acid] belongs 98%.
`CC(=C/C(=O)O)/C(=C/c1ccc2cc3c(cc2c1)C(C)(C)CCC3(C)C)c1cccc(C(=O)O)c1` [Structure 11k, (2Z),(4Z)-3-Methyl-4-(3-carboxyphenyl)-5-(5,6,7,8-tetrahydro-5,5,8,8-tetramethyl-2-anthracenyl)-2,4-pentadienoic acid] returned an inhibition at 100 µM of 98%.

Still in this test, the particulars now being: Table 2, Structure 14 (Type IA); 100 μM; enzyme isolated from human platelets.
As to `CCCCCCCCCCOc1ccc(/C=C(/C=C\C(=O)O)c2cccc(C(F)(F)F)c2)cc1` [Structure 14a, (2Z),(4Z)-4-(3-Trifluoromethylphenyl)-5-(4-decyloxyphenyl)-2,4-pentadienoic acid], the inhibition at 100 µM worked out at 100%.
Same read-out and setting: to `CCCCCCCCCCOc1cccc(/C=C(/C=C\C(=O)O)c2cccc(C(F)(F)F)c2)c1` [Structure 14b, (2Z),(4Z)-4-(3-Trifluoromethylphenyl)-5-(3-decyloxyphenyl)-2,4-pentadienoic acid] belongs 100%.
On to `CCCCCCCCCCOc1ccccc1/C=C(/C=C\C(=O)O)c1cccc(C(F)(F)F)c1` [Structure 14c, (2Z),(4Z)-4-(3-Trifluoromethylphenyl)-5-(2-decyloxyphenyl)-2,4-pentadienoic acid], for which the “% Inhibition of PLA2 at 100 μM” value turned out to be 92%.
The compound `CC(C)=CCC/C(C)=C/COc1ccc(/C=C(/C=C\C(=O)O)c2cccc(C(F)(F)F)c2)cc1` [Structure 14d] showed an inhibition at 100 µM of 98%.
Consider `CCCCCCCCCCOc1ccc(/C=C(/C=CC(=O)O)c2cccc(C(F)(F)F)c2)cc1OCCCCCCCCCC` [Structure 14e, (2Z),(4Z)-4-(3-Trifluoromethylphenyl)-5-(3,4-bisdecyloxyphenyl)-2,4-pentadienoic acid/(2E),(4Z)-4-(3-Trifluoromethylphenyl)-5-(3,4-bisdecyloxyphenyl)-2,4-pentadienoic acid], for which the inhibition at 100 µM turned out to be 99%.
In turn, `CC1(C)CCC(C)(C)c2cc3cc(/C=C(/C=C\C(=O)O)c4cccc(C(F)(F)F)c4)ccc3cc21` [Structure 14f, (2Z), (4Z)-4-(3-trifluoromethylphenyl)-5-(5,6,7,8-tetrahydro-5,5,8,8-tetramethyl-2-anthracenyl)-2,4-pentadienoic acid] displayed an inhibition at 100 µM of 71%.
Still for that read-out and setting: for `CC1(C)CCC(C)(C)c2cc(CC/C=C(/C=C\C(=O)O)c3cccc(C(F)(F)F)c3)ccc21` [Structure 14g, (2Z),(4Z)-4-(3-Trifluoromethylphenyl)-7-(5,6,7,8-tetrahydro-5,5,8,8-tetramethyl-2-naphthalenyl)-2,4-heptadienoic acid] the value was 96%.
On to `CC1(C)CCC(C)(C)c2cc(CC/C=C(/C=C\C(=O)O)c3ccc(F)cc3)ccc21` [Structure 14h, (2Z),(4Z)-4-(4-Fluorophenyl)-7-(5,6,7,8-tetrahydro-5,5,8,8-tetramethyl-2-naphthalenyl)-2,4-heptadienoic acid], for which the inhibition at 100 µM turned out to be 96%.
Compound `CC1(C)CCC(C)(C)c2cc(CC/C=C(/C=C\C(=O)O)c3cccc(F)c3)ccc21` [Structure 14i, (2Z),(4Z)-4-(3-Fluorophenyl)-7-(5,6,7,8-tetrahydro-5,5,8,8-tetramethyl-2-naphthalenyl)-2,4-heptadienoic acid] showed an inhibition at 100 µM of 96%.
Still for that read-out and setting: to `CC1(C)CCC(C)(C)c2cc(CC/C=C(/C=C\C(=O)O)c3ccccc3)ccc21` [Structure 14j, (2Z),(4Z)-4-Phenyl-7-(5,6,7,8-tetrahydro-5,5,8,8-tetramethyl-2-naphthalenyl)-2,4-heptadienoic acid] belongs 92%.
Same read-out and setting: to `COc1ccc(CC/C=C(/C=C\C(=O)O)c2cccc(C(F)(F)F)c2)cc1C12CC3CC(CC(C3)C1)C2` [Structure 14k, (2Z),(4Z)-4-(3-Trifluoromethylphenyl)-7-[3-(1-adamantyl)-4-methoxyphenyl]-2,4-heptadienoic acid] belongs 99%; to `COc1ccc(CC/C=C(/C=C\C(=O)O)c2ccccc2)cc1C12CC3CC(CC(C3)C1)C2` [Structure 14l, (2Z),(4Z)-4-Phenyl-7-[3-(1-adamantyl)-4-methoxyphenyl]-2,4-heptadienoic acid], 99%; to `COc1cc(CC/C=C(/C=C\C(=O)O)c2cccc(C(F)(F)F)c2)ccc1C12CC3CC(CC(C3)C1)C2` [Structure 14m, (2Z),(4Z)-4-(3-Trifluoromethylphenyl)-7-[4-(1-adamantyl)-3-methoxyphenyl]-2,4-heptadienoic acid], 99%.

The same test, now with this note: Table 5, Structure 32 (Type IC); 100 μm as printed; enzyme isolated from human platelets.
As for `C/C(=C\CC(/C=C\C(=O)O)c1cccc(C(=O)O)c1)c1ccc2c(c1)C(C)(C)CCC2(C)C` (racemic) [Structure 32c], the “% Inhibition of PLA2 at 100 μm” value was found to be 67%.
